The values below come from patent publication US8623862B2, “Derivatives of N-[(1H-pyrazol-1-yl)aryl]-1H-indole or 1H-indazole-3-carboxamide, preparation thereof and applications thereof in therapeutics” (Sanofi, priority 2011, dated 2014).

Each structure is given as a SMILES string. Where a name gives a salt, the structure may show the parent alone.

One assay has as its system platelet aggregation. Nature of the assay: Inhibition of platelet aggregation ex vivo (rat blood). Format: in vivo. Conditions: rat, gavage (oral), 10 mg/kg, two hours before taking the sample. On the procedure:
Inhibition of Platelet Aggregation Ex Vivo (Rat Blood)
Male rats of the Sprague-Dawley strain, weighing 250-300 g, are used at a rate of 6 animals per batch. Each test compound is diluted in a solution of glucose-containing water (glucose 5%) containing 5% of cremophore and 3% of glycofurol.
The compounds according to the invention are administered by stomach tube (10 ml/kg at 1 mg/ml) two hours before taking the sample or by infusion (1 ml/kg at 10 mg/ml) two hours before taking the sample.
The platelet-rich plasma (PRP) is obtained by centrifugation of the blood at 300 g for 5 minutes, and the measurements of platelet aggregation are performed as described above.
The results are calculated using the area under the curve of absorbance measured for 6 minutes, and expressed as percentage (%) of inhibition.
`CCCC(=O)c1cnn(-c2ccc(NC(=O)c3cn(CC(=O)N4CCN(Cc5cc(C)on5)CC4)c4ccc(Cl)cc34)cc2)c1C.Cl` [Compound 166]: the “Inhibition of platelet aggregation ex vivo (rat blood) in %, Gavage (oral) 10 mg/kg” value was 72.0%.

The assay is the same for the next values; noted with them: rat, infusion (intravenous), 10 mg/kg, two hours before taking the sample.
On to `CCCC(=O)c1cnn(-c2ccc(NC(=O)c3cn(CC(=O)O)c4ccc(C)cc34)cc2)c1C` [Compound 11], for which the “Inhibition of platelet aggregation ex vivo (rat blood) in %, Infusion (Intravenous) 10 mg/kg” value was 40.7%.

A further assay has as its system platelet aggregation. The assay is described as follows: Inhibition of platelet aggregation in vitro (rat blood).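 Note: aggregation induced by ADP added as 4 µL of a 250 µM solution.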 Format: cell-based. Conditions: 0.1 h; rat platelet-rich plasma, ADP-induced aggregation, area under the curve of absorbance for 6 minutes; read-out: Inhibition of platelet aggregation in vitro (rat blood). A digest of the protocol:
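Platelet-rich plasma from male Sprague-Dawley rats (250-300 g), prepared by centrifugation at 300 g for 5 minutes. Aggregation measured at 37° C in an aggregometer. Percentage inhibition derived from area under the absorbance curve over 6 minutes.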
For `CCCC(=O)c1cnn(-c2ccc(NC(=O)c3cn(CC(=O)N4CCNC(C)C4)c4ccc(C)cc34)cc2)c1C` (centres unmarked) [Compound 242, N-[4-(4-Butyryl-5-methyl-1H-pyrazol-1-yl)phenyl]-5-methyl-1-[2-(3-methylpiperazin-1-yl)-2-oxoethyl]-1H-indole-3-carboxamide hydrochloride], the IC50 was 510 nM. In the case of `CCCC(=O)c1cnn(-c2ccc(NC(=O)c3cn(CC(=O)NC4CCCN(C)C4)c4ccc(C)cc34)cc2)c1C` (centres unmarked) [Compound 267], the IC50 was 450 nM.

Still in this assay, the particulars now being: rat blood, in vitro; read-out: Inhibition of platelet aggregation in vitro (rat blood).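 Note: aggregation induced by ADP added as 4 µL of a 250 µM solution.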
Turning to `CCCC(=O)c1cnn(-c2ccc(NC(=O)c3cn(CC(=O)N4CCN5C(=O)CCC5C4)c4ccc(Cl)cc34)cc2)c1C` (centres unmarked) [Compound 183], the IC50 worked out at 230 nM. Take `CCCC(=O)c1cnn(-c2ccc(NC(=O)c3cn(CC(=O)N4CCN(C)C(=O)C4)c4ccc(Cl)cc34)cc2)c1C` [Compound 184]: the IC50 was found to be 170 nM. Regarding `CCCC(=O)c1cnn(-c2ccc(NC(=O)c3cn(CC(=O)N4CCN(C)C(C)(C)C4)c4ccc(Cl)cc34)cc2)c1C` [Compound 186], the IC50 was 250 nM. Same read-out and setting: the value for `CCCC(=O)c1cnn(-c2ccc(NC(=O)c3cn(CC(=O)N4Cc5cccnc5C4)c4ccc(Cl)cc34)cc2)c1C` [Compound 187] was 610 nM. For the compound `CCCC(=O)c1cnn(-c2ccc(NC(=O)c3cn(CC(=O)N4CC[C@@H](C(=O)NC5CC5)C4)c4ccc(Cl)cc34)cc2)c1C` [Compound 188], the IC50 stood at 550 nM. Same read-out and setting: the figure for `CCCC(=O)c1cnn(-c2ccc(NC(=O)c3cn(CC(=O)N4CCC(F)(F)C4)c4ccc(Cl)cc34)cc2)c1C` [Compound 189] is 410 nM; for `CCCC(=O)c1cnn(-c2ccc(NC(=O)c3cn(CC(=O)N4CCN(C5COC5)CC4)c4ccc(Cl)cc34)cc2)c1C` [Compound 191] it is 160 nM; for `CCCC(=O)c1cnn(-c2ccc(NC(=O)c3cn(CC(=O)N4CC5CCC(C4)N5C)c4ccc(Cl)cc34)cc2)c1C` [Compound 192] it is 270 nM. Same read-out and setting: the value for `CCCC(=O)c1cnn(-c2ccc(NC(=O)c3cn(CC(=O)N4CCN(C)C(CCOC)C4)c4ccc(Cl)cc34)cc2)c1C` (centres unmarked) [Compound 196] was 230 nM; that for `CCCC(=O)c1cnn(-c2ccc(NC(=O)c3cn(CC(=O)N4CCN(CCNC(C)=O)CC4)c4ccc(Cl)cc34)cc2)c1C` [Compound 197] was 250 nM.

Regarding `CCCC(=O)c1cnn(-c2ccc(NC(=O)c3cn(CC(=O)N4CCN(CC(=O)N5CCCC5)CC4)c4ccc(Cl)cc34)cc2)c1C` [Compound 198], the IC50 was 410 nM.

As for `CCCC(=O)c1cnn(-c2ccc(NC(=O)c3cn(CC(=O)N4CCN(CC(N)=O)CC4)c4ccc(Cl)cc34)cc2)c1C` [Compound 199], the IC50 was determined as 270 nM. Still for that read-out and setting: the value for `CCCC(=O)c1cnn(-c2ccc(NC(=O)c3cn(CC(=O)N(C)CCOC)c4ccc(Cl)cc34)cc2)c1C` [Compound 200] was 480 nM; that for `CCCC(=O)c1cnn(-c2ccc(NC(=O)c3cn(CC(=O)N4CCN(C5CCC5)CC4)c4ccc(Cl)cc34)cc2)c1C` [Compound 201] was 650 nM; that for `CCCC(=O)c1cnn(-c2ccc(NC(=O)c3cn(CC(=O)N4CCN(C)CC4)c4ccc(C(F)(F)F)cc34)cc2)c1C` [Compound 203] was 360 nM. The same measure, in the same setting: the value for `CCCC(=O)c1cnn(-c2ccc(NC(=O)c3cn(CC(=O)N4CCC(OCCOC)C4)c4ccc(Cl)cc34)cc2)c1C` (centres unmarked) [Compound 206] was 830 nM; that for `CCCC(=O)c1cnn(-c2ccc(NC(=O)c3cn(CC(=O)N4CCC(OCCO)C4)c4ccc(Cl)cc34)cc2)c1C` (centres unmarked) [Compound 208] was 370 nM. Consider `CCCC(=O)c1cnn(-c2ccc(NC(=O)c3cn(CC(=O)N4CCN(CC(O)C(F)(F)F)CC4)c4ccc(Cl)cc34)cc2)c1C` (centres unmarked) [Compound 209], for which the IC50 is 420 nM. In the case of `CCCC(=O)c1cnn(-c2ccc(NC(=O)c3cn(CC(=O)N4CCN(CCN(C)C(C)=O)CC4)c4ccc(Cl)cc34)cc2)c1C` [Compound 211], the IC50 turned out to be 280 nM.

As for `CCCC(=O)c1cnn(-c2ccc(NC(=O)c3cn(CC(=O)N4CC5CC4CN5C4CCC4)c4ccc(Cl)cc34)cc2)c1C` (centres unmarked) [Compound 214], the IC50 was found to be 660 nM. Same read-out and setting: the figure for `CC(=O)c1cnn(-c2ccc(NC(=O)c3cn(CC(=O)N4CCN(C)CC4)c4ccc(Cl)cc34)cc2)c1C` [Compound 216] is 730 nM. Still for that read-out and setting: the value for `CCC(=O)c1cnn(-c2ccc(NC(=O)c3cn(CC(=O)N4CCN(C)CC4)c4ccc(Cl)cc34)cc2)c1C` [Compound 217] was 600 nM.

`CCOC(=O)c1cnn(-c2ccc(NC(=O)c3cn(CC(=O)N4CCN(C)CC4)c4ccc(Cl)cc34)cc2)c1C` [Compound 218]: the IC50 turned out to be 560 nM.

Turning to `CCCC(=O)c1cnn(-c2ccc(NC(=O)c3cn(CC(=O)N4CCN(C)CC4)c4ccc(Cl)cc34)c(C(N)=O)c2)c1C` [Compound 220], the IC50 is 220 nM.

Staying with this assay, now noted: rat platelet-rich plasma, ADP-induced aggregation, area under the curve of absorbance for 6 minutes; read-out: Inhibition of platelet aggregation in vitro (rat blood).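 Note: aggregation induced by ADP added as 4 µL of a 250 µM solution.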
Regarding `CCCC(=O)c1cnn(-c2ccc(NC(=O)c3cn(CC(=O)O)c4ccc(C)cc34)cc2)c1C` [Compound 11], the IC50 came to 9600 nM. Turning to `CCCC(=O)c1cnn(-c2ccc(NC(=O)c3cn(CC(=O)N4CCNCC4)c4ccc(C)cc34)cc2)c1C` [Compound 243], the IC50 worked out at 540 nM.

Regarding `CCCC(=O)c1cnn(-c2ccc(NC(=O)c3cn(CC(=O)N4CCCC(N)C4)c4ccc(C)cc34)cc2)c1C` (centres unmarked) [Compound 244], the IC50 was found to be 960 nM. Still for that read-out and setting: the figure for `CCCC(=O)c1cnn(-c2ccc(NC(=O)c3cn(CC(=O)NC4CCNC4)c4ccc(C)cc34)cc2)c1C` (centres unmarked) [Compound 245] is 530 nM; for `CCCC(=O)c1cnn(-c2ccc(NC(=O)c3cn(CC(=O)N4CC5CCNC5C4)c4ccc(C)cc34)cc2)c1C` (centres unmarked) [Compound 246] it is 850 nM; for `CCCC(=O)c1cnn(-c2ccc(NC(=O)c3cn(CC(=O)N4CC(C)NC(C)C4)c4ccc(C)cc34)cc2)c1C` (centres unmarked) [Compound 247] it is 260 nM. Still for that read-out and setting: the figure for `CCCC(=O)c1cnn(-c2ccc(NC(=O)c3cn(CC(=O)N4CCC(NC)CC4)c4ccc(C)cc34)cc2)c1C` [Compound 248] is 320 nM; for `CCCC(=O)c1cnn(-c2ccc(NC(=O)c3cn(CC(=O)N4CCNC(CO)C4)c4ccc(C)cc34)cc2)c1C` (centres unmarked) [Compound 249] it is 240 nM; for `CCCC(=O)c1cnn(-c2ccc(NC(=O)c3cn(CC(=O)N4CCC(NC)C4)c4ccc(C)cc34)cc2)c1C` (centres unmarked) [Compound 250] it is 610 nM. Still for that read-out and setting: the value for `CCCC(=O)c1cnn(-c2ccc(NC(=O)c3cn(CC(=O)N4CCCC(NC)C4)c4ccc(C)cc34)cc2)c1C` (centres unmarked) [Compound 251] was 540 nM; that for `CCCC(=O)c1cnn(-c2ccc(NC(=O)c3cn(CC(=O)N4CCC(N)CC4)c4ccc(C)cc34)cc2)c1C` [Compound 252] was 400 nM; that for `CCCC(=O)c1cnn(-c2ccc(NC(=O)c3cn(CC(=O)N4CCNCC4CO)c4ccc(C)cc34)cc2)c1C` (centres unmarked) [Compound 254] was 190 nM. As for `CCCC(=O)c1cnn(-c2ccc(NC(=O)c3cn(CC(=O)N4CC5CNCC5C4)c4ccc(C)cc34)cc2)c1C` (centres unmarked) [Compound 255], the IC50 turned out to be 180 nM. Same read-out and setting: the value for `CCCC(=O)c1cnn(-c2ccc(NC(=O)c3cn(CC(=O)N4CCNCC4)c4ccc(Cl)cc34)cc2)c1C` [Compound 256] was 230 nM.

Turning to `CCCC(=O)c1cnn(-c2ccc(NC(=O)c3cn(CC(=O)N4CCNC(C)C4)c4ccc(Cl)cc34)cc2)c1C` (centres unmarked) [Compound 257], the IC50 came to 460 nM. On the same count and under the same terms, the figure for `CCCC(=O)c1cnn(-c2ccc(NC(=O)c3cn(CC(=O)N4CCNCC4C)c4ccc(Cl)cc34)cc2)c1C` (centres unmarked) [Compound 258] is 300 nM; for `CCCC(=O)c1cnn(-c2ccc(NC(=O)c3cn(CC(=O)N4CC(C)N(C)C(C)C4)c4ccc(C)cc34)cc2)c1C` (centres unmarked) [Compound 263] it is 420 nM; for `CCCC(=O)c1cnn(-c2ccc(NC(=O)c3cn(CC(=O)N4CC5CC4CN5C)c4ccc(C)cc34)cc2)c1C` (centres unmarked) [Compound 264] it is 560 nM.

In the case of `CCCC(=O)c1cnn(-c2ccc(NC(=O)c3cn(CC(=O)N4CC5CCN(C)C5C4)c4ccc(C)cc34)cc2)c1C` (centres unmarked) [Compound 265], the IC50 stood at 790 nM. As for `CCCC(=O)c1cnn(-c2ccc(NC(=O)c3cn(CC(=O)N4CC5CN(C)CC5C4)c4ccc(C)cc34)cc2)c1C` (centres unmarked) [Compound 266], the IC50 was 400 nM. Regarding `CCCC(=O)c1cnn(-c2ccc(NC(=O)c3cn(CC(=O)N4CCN(C)C(CO)C4)c4ccc(C)cc34)cc2)c1C` (centres unmarked) [Compound 268], the IC50 amounted to 240 nM. Still for that read-out and setting: the figure for `CCCC(=O)c1cnn(-c2ccc(NC(=O)c3cn(CC(=O)N4CCN(C)C(C)C4)c4ccc(C)cc34)cc2)c1C` (centres unmarked) [Compound 269] is 350 nM.
